According to publication PMC10410440, “Preclinical PK investigation of a novel IDO1/TDO dual inhibitor—SHR9146 in mouse plasma and tissues by LC-MS/MS” (Frontiers in Oncology, 2023):
Entries after “also recorded” stand apart in the source; their conditions may differ.

Tests used:
[1] = Stability of SHR9146 in mouse plasma, whole blood and post-preparative samples; format: in vitro ADME
Experimental: The plasma samples were examined under different conditions, including at room temperature for 6 h, three freeze–thaw cycles, and at −20°C and −70°C for 50 days. Post-preparative plasma samples were studied after being placed at room temperature for 24 h. […] Samples were considered to be stable if the deviations between measured concentration and the spiked values were within ±15%.

advanced solid tumors = test system: advanced solid tumors; design: method as in doi:10.1200/JCO.2021.39.15_suppl.3101; conditions: SHR9146 plus camrelizumab in combination with/without apatinib; cited from earlier work
[2] = mouse plasma, after three freeze–thaw cycles, QC spiked 0.15 μg/mL, n=3
[3] = mouse plasma, after three freeze–thaw cycles, QC spiked 40 μg/mL, n=3
[4] = mouse plasma, at -70 °C for 50 days, QC spiked 0.15 μg/mL, n=3
[5] = mouse plasma, at -70 °C for 50 days, QC spiked 40 μg/mL, n=3
[6] = mouse plasma, at room temperature for 6 h, QC spiked 0.15 μg/mL, n=3
[7] = mouse plasma, at room temperature for 6 h, QC spiked 40 μg/mL, n=3
[8] = mouse plasma, at −20 °C for 50 days, QC spiked 0.15 μg/mL, n=3
[9] = mouse plasma, at −20 °C for 50 days, QC spiked 40 μg/mL, n=3
[10] = mouse whole blood samples at room temperature for 2 h, QC spiked 0.15 μg/mL, n=3
[11] = mouse whole blood samples at room temperature for 2 h, QC spiked 40 μg/mL, n=3
[12] = post-preparation plasma samples at room temperature for 24 h, QC spiked 0.15 μg/mL, n=3
[13] = post-preparation plasma samples at room temperature for 24 h, QC spiked 40 μg/mL, n=3

In the case of OCCn1cc(-c2ccc(N3CCC([C@H]4c5c(F)cccc5-c5cncn54)CC3)cc2)cn1 [SHR9146], the “RE” value ([1]; mouse plasma samples at room temperature for 6 h, QC levels not separated) is reported as −11.1%, the Measured value [1, 2] is reported as 0.151 ± 0.002 µg/mL and the RE [1, 2] is reported as 1.0%. For the same compound, the Measured value [1, 3] was 40.2 ± 0.33 µg/mL, the RE [1, 3] was 0.6% and the Measured value [1, 4] was 0.151 ± 0.004 µg/mL. For the same compound, the RE [1, 4] was 0.5%, the Measured value [1, 5] was 39.5 ± 0.26 µg/mL and the RE [1, 5] was −1.2%. The Measured value [1, 6] was 0.133 ± 0.002 µg/mL, the RE [1, 6] was −11.1% and the Measured value [1, 7] was 35.6 ± 0.17 µg/mL. It also gave an RE [1, 7] of −11.1%, a Measured value [1, 8] of 0.148 ± 0.004 µg/mL and an RE [1, 8] of −1.6%. For the same compound, the Measured value [1, 9] was 39.5 ± 0.11 µg/mL, the RE [1, 9] was −1.2% and the Measured value [1, 10] was 0.145 ± 0.002 µg/mL. The RE [1, 10] was −0.5%, the Measured value [1, 11] was 39.4 ± 0.22 µg/mL and the RE [1, 11] was −0.1%. It also gave a Measured value [1, 12] of 0.151 ± 0.003 µg/mL, an RE [1, 12] of 0.8% and a Measured value [1, 13] of 40.3 ± 0.09 µg/mL. The RE [1, 13] was 0.8%, the stability in bio-samples ([1]; various storage conditions, stable if deviation within ±15%) was “stable in all the tested bio-samples; also recorded: stable under various storage conditions” and the “antitumor activity and safety in patients” value (advanced solid tumors) was “promising antitumor activity with acceptable safety”.
